From DBAASP come the findings set out here.

Structures are written as SMILES. In brackets after ≈: the same amount, converted by molar mass. A value given as a limit tells only on which side of the number the result lay.

By MIC is commonly meant the least concentration at which growth counts as inhibited. A high value points to weaker potency.

Among the test systems are Escherichia coli; Bacillus subtilis; Candida albicans; Staphylococcus aureus.
Test in all cases: ≥ marks a high value that may be exact or a test limit, other limits are often not marked, values filed in µg/mL are converted to µM
The subject of test [1] is Staphylococcus aureus ATCC BAA-1556.
In test [2] the test system is Staphylococcus aureus KCTC 1621.
Test [3] relates to Bacillus subtilis KCTC 3068.
In test [4] the test system is Pseudomonas aeruginosa KCTC 1637.
Test [5] relates to Staphylococcus epidermidis KCTC 1917.
Test [6] relates to Escherichia coli KCTC 1682.
The test system of test [7] is Salmonella typhimurium KCTC 1926.
The test system of test [8] is Escherichia coli DH5alpha.

On to `CC[C@H](C)[C@H](NC(=O)[C@@H]1CCCN1C(=O)[C@H](CCSC)NC(=O)[C@@H](N)Cc1ccccc1)C(=O)N[C@@H](CC(C)C)C(=O)N[C@@H](CO)C(=O)N[C@H]1CSSC[C@@H](C(=O)O)NC(=O)[C@H](CCCN=C(N)N)NC(=O)[C@H](CCCCN)NC(=O)[C@H](Cc2ccccc2)NC(=O)[C@H](CCCN=C(N)N)NC(=O)[C@H](CO)NC1=O` [FMPILSCSRFKRC], for which the MIC in the test with Escherichia coli was 2.95 µM (≈ 4.67 µg/mL); in the test on Bacillus subtilis, 23.6 µM (≈ 37.5 µg/mL); against Candida albicans, 0.693 µM (≈ 1.1 µg/mL); in the test on Staphylococcus aureus, 5.9 µM (≈ 9.36 µg/mL).
Take `CC[C@H](C)[C@H](NC(=O)[C@H](CC(C)C)NC(=O)[C@H](C)NC(=O)[C@@H]1CCCN1C(=O)[C@H](CC(C)C)NC(=O)CN)C(=O)N[C@@H](CO)C(=O)N[C@@H](Cc1c[nH]c2ccccc12)C(=O)N[C@H](C(=O)N[C@@H](CCCCN)C(=O)N[C@@H](CCCN=C(N)N)C(=O)N[C@@H](CCCCN)C(=O)N[C@@H](CCCN=C(N)N)C(=O)N[C@@H](CC(C)C)C(N)=O)[C@@H](C)CC` [GLPALISWIKRKRL]: the MIC in the test on Escherichia coli was 6.9 µM (≈ 11.4 µg/mL); against Bacillus subtilis, 0.394 µM (≈ 0.65 µg/mL); against Staphylococcus aureus it was 1.57 µM (≈ 2.6 µg/mL).
Taken in the same sequence, the figures for `CC[C@H](C)[C@H](NC(=O)[C@H](CC(C)C)NC(=O)[C@H](C)NC(=O)[C@@H]1CCCN1C(=O)[C@H](CO)NC(=O)CN)C(=O)N[C@@H](CO)C(=O)N[C@@H](Cc1c[nH]c2ccccc12)C(=O)N[C@H](C(=O)N[C@@H](CCCCN)C(=O)N[C@@H](CCCN=C(N)N)C(=O)N[C@@H](CCCCN)C(=O)N[C@@H](CCCN=C(N)N)C(=O)N[C@@H](CCC(N)=O)C(=O)N[C@@H](CCC(N)=O)C(N)=O)[C@@H](C)CC` [GSPALISWIKRKRQQ] were above 153 µM, at least 38.2 µM and 50.9 µM (≈ 90 µg/mL).
Turning to `CC[C@H](C)[C@H](N)C(=O)N[C@@H](CC(N)=O)C(=O)N[C@@H](Cc1c[nH]c2ccccc12)C(=O)N[C@@H](CCCCN)C(=O)N[C@@H](CCCCN)C(=O)N[C@H](C(=O)N[C@@H](Cc1ccccc1)C(=O)N[C@@H](CCC(=O)O)C(=O)N[C@@H](CCCCN)C(=O)N[C@H](C(=O)N[C@@H](CCCCN)C(=O)N[C@@H](CC(=O)O)C(=O)N[C@@H](CC(C)C)C(=O)N[C@H](C(N)=O)C(C)C)C(C)C)[C@@H](C)CC` [INWKKIFEKVKDLV], the MIC amounted to 9 µM (≈ 15.8 µg/mL) with Escherichia coli and 5 µM (≈ 8.8 µg/mL) against Bacillus subtilis.
In [1], `CC[C@H](C)[C@H](NC(=O)[C@H](Cc1c[nH]c2ccccc12)NC(=O)[C@H](CCCN=C(N)N)NC(=O)[C@H](CCCN=C(N)N)NC(=O)[C@H](C)NC(=O)[C@@H](N)CCCCN)C(=O)N[C@@H](CCCN=C(N)N)C(=O)N[C@@H](Cc1c[nH]c2ccccc12)C(=O)N[C@@H](CC(C)C)C(N)=O` [KARRWIRWL] had an MIC of 25 µM (≈ 32.1 µg/mL).
On to `CC(C)C[C@H](NC(=O)[C@H](CC(C)C)NC(=O)[C@H](CCCCN)NC(=O)[C@H](CC(C)C)NC(=O)[C@H](CC(C)C)NC(=O)[C@H](Cc1c[nH]c2ccccc12)NC(=O)[C@H](CCCCN)NC(=O)[C@H](CC(C)C)NC(=O)[C@H](CC(C)C)NC(=O)[C@@H](N)CCCCN)C(N)=O` [KLLKWLLKLL], for which the minimum inhibitory concentration (MIC) in [1] came out at 3.13 µM (≈ 3.96 µg/mL).
`CC(C)C[C@H](NC(=O)[C@H](CC(C)C)NC(=O)[C@H](CCCCN)NC(=O)[C@H](CC(C)C)NC(=O)[C@H](CC(C)C)NC(=O)[C@H](CC(C)C)NC(=O)[C@H](CC(C)C)NC(=O)[C@H](CC(C)C)NC(=O)[C@@H](N)CCCCN)C(N)=O` [KLLLLLKLL]: the MIC in test [1] was at least 100 µM.
In [1], `CC[C@H](C)[C@H](NC(=O)[C@H](Cc1c[nH]c2ccccc12)NC(=O)[C@H](CCCN=C(N)N)NC(=O)[C@H](CC(C)C)NC(=O)[C@H](Cc1c[nH]c2ccccc12)NC(=O)[C@@H](N)CCCCN)C(=O)N[C@@H](CCCN=C(N)N)C(=O)N[C@@H](Cc1c[nH]c2ccccc12)C(=O)N[C@@H](CC(C)C)C(N)=O` [KWLRWIRWL] returned an MIC of 6.25 µM (≈ 8.47 µg/mL).
In turn, `CC[C@H](C)[C@H](NC(=O)[C@H](Cc1c[nH]c2ccccc12)NC(=O)[C@H](C)NC(=O)[C@H](CCCN=C(N)N)NC(=O)[C@H](Cc1c[nH]c2ccccc12)NC(=O)[C@@H](N)CCCCN)C(=O)N[C@@H](CCCN=C(N)N)C(=O)N[C@@H](Cc1c[nH]c2ccccc12)C(=O)N[C@@H](CC(C)C)C(N)=O` [KWRAWIRWL] displayed an MIC in [1] of 12.5 µM (≈ 16.4 µg/mL).
`CC(C)C[C@H](NC(=O)[C@H](CC(C)C)NC(=O)[C@H](CCCCN)NC(=O)[C@H](CC(C)C)NC(=O)[C@H](CC(C)C)NC(=O)[C@H](Cc1c[nH]c2ccccc12)NC(=O)[C@H](CCCCN)NC(=O)[C@@H](N)CC(C)C)C(N)=O` [LKWLLKLL] yielded an MIC in [1] of 12.5 µM (≈ 12.8 µg/mL).
Same read-out and setting: as for `CC(C)C[C@H](NC(=O)[C@H](CC(C)C)NC(=O)[C@H](CC(C)C)NC(=O)[C@H](CCCCN)NC(=O)[C@H](CC(C)C)NC(=O)[C@H](CC(C)C)NC(=O)[C@H](CCCCN)NC(=O)[C@H](CC(C)C)NC(=O)[C@@H](N)CC(C)C)C(N)=O` [LLKLLKLLL], the figure is 3.13 µM (≈ 3.34 µg/mL); as for `CC(C)C[C@H](NC(=O)[C@H](CC(C)C)NC(=O)[C@H](CCCCN)NC(=O)[C@H](CC(C)C)NC(=O)[C@H](CC(C)C)NC(=O)[C@H](CC(C)C)NC(=O)[C@H](CCCCN)NC(=O)[C@H](CC(C)C)NC(=O)[C@@H](N)CC(C)C)C(=O)O` [LLKLLLKLL], at least 100 µM.
The molecule `CC(C)C[C@H](NC(=O)[C@H](CCCCN)NC(=O)[C@H](CC(C)C)NC(=O)[C@H](CC(C)C)NC(=O)[C@H](CC(C)C)NC(=O)[C@H](CCCCN)NC(=O)[C@H](CC(C)C)NC(=O)[C@@H](N)CC(C)C)C(N)=O` [LLKLLLKL] registered an MIC in test [1] of at least 100 µM.
On the same count and under the same terms, under `CC(C)C[C@H](NC(=O)[C@H](CCCCN)NC(=O)[C@H](CC(C)C)NC(=O)[C@H](CC(C)C)NC(=O)[C@H](CC(C)C)NC(=O)[C@H](CC(C)C)NC(=O)[C@H](CCCCN)NC(=O)[C@H](CC(C)C)NC(=O)[C@@H](N)CC(C)C)C(N)=O` [LLKLLLLKL] stands at least 100 µM.
For `CC(C)C[C@H](NC(=O)[C@H](CCCCN)NC(=O)[C@H](CC(C)C)NC(=O)[C@H](CC(C)C)NC(=O)[C@H](CC(C)C)NC(=O)[C@H](CCCCN)NC(=O)[C@H](CC(C)C)NC(=O)[C@H](CC(C)C)NC(=O)[C@@H](N)CC(C)C)C(N)=O` [LLLKLLLKL], in test [1], the MIC is at least 100 µM.
As for `CC[C@H](C)[C@H](NC(=O)[C@H](C)NC(=O)[C@H](CCCN=C(N)N)NC(=O)[C@@H]1CCCN1C(=O)[C@H](CC(C)C)NC(=O)[C@H](CC(N)=O)NC(=O)[C@H](Cc1ccc(O)cc1)NC(=O)CNC(=O)[C@H](C)NC(=O)[C@@H](NC(=O)[C@@H](NC(=O)[C@@H](NC(=O)[C@H](CCCN=C(N)N)NC(=O)[C@@H](NC(=O)[C@@H](NC(=O)[C@H](CC(C)C)NC(=O)[C@H](Cc1ccc(O)cc1)NC(=O)[C@H](Cc1c[nH]c2ccccc12)NC(=O)[C@@H](NC(=O)[C@H](CCCN=C(N)N)NC(=O)[C@H](CCCCN)NC(=O)[C@@H](NC(=O)[C@@H](N)CCCN=C(N)N)C(C)C)C(C)C)C(C)C)[C@@H](C)CC)[C@@H](C)O)C(C)C)[C@@H](C)CC)C(=O)N[C@@H](CCCCN)C(=O)N[C@@H](CCCCN)C(=O)N[C@@H](CCCCN)C(=O)O` [RVKRVWYLVIRTVIAGYNLPRAIKKK], the minimal inhibitory concentration (MIC) is 8 µM (≈ 25.1 µg/mL) in test [2]; 8 µM (≈ 25.1 µg/mL) in test [3]; 8 µM (≈ 25.1 µg/mL) in [4]; 8 µM (≈ 25.1 µg/mL) in test [5]; 4 µM (≈ 12.6 µg/mL) in test [6]; 8 µM (≈ 25.1 µg/mL) in test [7].
The molecule `CC[C@H](C)[C@H](NC(=O)[C@H](Cc1c[nH]c2ccccc12)NC(=O)[C@@H](N)CCCN=C(N)N)C(=O)N[C@@H](CCCN=C(N)N)C(=O)N[C@@H](Cc1c[nH]c2ccccc12)C(=O)N[C@@H](CC(C)C)C(N)=O` [RWIRWL] showed an MIC in [1] of at least 100 µM.
As for `C[C@@H](O)[C@H](NC(=O)[C@H](CCCN=C(N)N)NC(=O)[C@H](CCCN=C(N)N)NC(=O)[C@H](CC(N)=O)NC(=O)[C@H](Cc1c[nH]c2ccccc12)NC(=O)[C@H](CCCN=C(N)N)NC(=O)[C@H](Cc1c[nH]c2ccccc12)NC(=O)[C@@H](N)CCCN=C(N)N)C(=O)NCC(=O)N[C@@H](CCCN=C(N)N)C(=O)N[C@@H](Cc1c[nH]c2ccccc12)C(=O)N[C@@H](CCCN=C(N)N)C(=O)N[C@@H](Cc1c[nH]c2ccccc12)C(=O)N[C@@H](Cc1ccc(O)cc1)C(=O)O` [RWRWNRRTGRWRWY], the minimal inhibitory concentration (MIC) in [8] stood at 12.5 µM (≈ 26.7 µg/mL).
As to `CC(C)[C@H](N)C(=O)N[C@H](C(=O)N[C@@H](CCCCN)C(=O)N[C@H](C(=O)N[C@H](C(=O)N[C@H](C(=O)N[C@@H](CCCCN)C(=O)N[C@H](C(=O)N[C@H](C(N)=O)C(C)C)C(C)C)C(C)C)C(C)C)C(C)C)C(C)C` [VVKVVVKVV], the minimum inhibitory concentration (MIC) in test [1] was at least 100 µM.
In the case of `CC(C)C[C@H](NC(=O)[C@H](Cc1c[nH]c2ccccc12)NC(=O)[C@H](Cc1c[nH]c2ccccc12)NC(=O)[C@H](CCCN=C(N)N)NC(=O)[C@H](Cc1c[nH]c2ccccc12)NC(=O)[C@H](Cc1c[nH]c2ccccc12)NC(=O)[C@H](CC(C)C)NC(=O)[C@H](Cc1c[nH]c2ccccc12)NC(=O)[C@@H](N)Cc1c[nH]c2ccccc12)C(N)=O` [WWLWWRWWL], the minimal inhibitory concentration (MIC) in test [1] was 6.25 µM (≈ 9.48 µg/mL).
